Measured values from US8067456B2 (AEterna Zentaris GmbH, priority 2004, dated 2011).
≈ marks a conversion by molar mass, not a printed value. Read-outs that look alike come from different tables or passages of the source.

What was measured:
[1] = target: T1, rat LHRH receptor (Rattus norvegicus, UniProt P30969); assay: LHRH receptor-ligand binding assay (transfected LTK cells); details: LTK cells transfected with rat LHRH receptor, 125I-triptorelin tracer, 37° C., 60 min; read-out: Binding to r-LHRHR EC50
T1 construct: expressed in transfected cells; host or cells: LTK cells (mouse fibroblasts, ATCC CCL-1.3)
T1 sequence (P30969 1-327): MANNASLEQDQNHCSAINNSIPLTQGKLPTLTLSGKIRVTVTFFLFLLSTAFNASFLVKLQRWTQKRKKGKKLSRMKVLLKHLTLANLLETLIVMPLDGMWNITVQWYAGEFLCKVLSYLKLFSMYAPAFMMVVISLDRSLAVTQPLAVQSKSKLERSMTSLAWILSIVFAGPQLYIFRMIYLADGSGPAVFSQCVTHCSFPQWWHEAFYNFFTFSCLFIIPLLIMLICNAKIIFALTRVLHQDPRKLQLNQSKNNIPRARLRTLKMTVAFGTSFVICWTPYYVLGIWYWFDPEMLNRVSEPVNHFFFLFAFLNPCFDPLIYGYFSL
Description: ^125I-Triptorelin [^125I-(D)-Trp6-GnRH] was purchased from Biotrend (Cologne, Germany).
The specific activity was in each case 2.13 Ci/mmol.
LTK cells (mouse fibroblasts: ATCC No. CCL-1.3) which have been transfected with the rat LHRH receptor are cultivated in DMEM medium (Invitrogen Life Technologies, Germany) with penicillin (100 I.U./ml), streptomycin (0.1 mg/ml) and glutamine (0.01 mol/l) and 10% fetal calf serum (FCS; Invitrogen Life Technologies, Germany) on plastic tissue culture plates (Nunc, Germany, 245×245-20 mm).
80% confluent cell culture plates are washed twice with 50 ml of phosphate-buffered saline (PBS) and then detached with 0.01 M EDTA solution. The cells are pelleted by centrifugation at 200·g for 5 min in a laboratory centrifuge (Kendro, Germany). The cell pellet is resuspended in 3 ml of binding medium (DMEM; 10 mM Hepes; 0.5% BSA; 0.1% […]; 1 g/l bacitracin (add fresh, stock 100×); 0.1 g/l SBTI (add fresh, stock 1000×) and the cell count is determined by Trypan blue staining in a Neubauer counting chamber. The cell suspension is adjusted with binding medium to a concentration of 5×10^5 cells/0.05 ml.
Binding studies for competition plots are carried out as duplicates. The test substances are employed as 10 mM DMSO solutions. They are diluted to 4 times the final concentration employed with binding medium. 25 μl of the substance dilution are mixed with 25 μl of tracer solution (^125I-triptorelin or ^125I-cetrorelix). The tracer concentration is adjusted to approx. 50 000 cpm (measured in a Cobra II, γ counter. PE Liefe Science, Germany) in the final reaction volume of 100 μl.
200 μl of silicone/liquid paraffin mixture (84%:16%) are introduced into 650 μl conical tubes (Roth. Germany). 50 μl of the cell suspension are pipetted thereon, followed by 50 μl of the test substance/tracer mixture. The tubes are capped and incubated with vertical rotation in an incubator at 37° C. for 60 min. After incubation, the samples are centrifuged in a centrifuge (Kendro, Germany) at 900 rpm and subsequently shock-frozen in liquid N2. The tip with the cell pellet is cut off and transferred into prepared counting vials (Roth, Germany). The remainder of the conical tube with the remaining supernatant is likewise transferred into a counting vial. The measurement takes place in a γ counter for 1 min/sample.
Evaluation of the samples takes place after calculation of the specific binding compared with untreated cells, after subtraction of the nonspecific binding (excess of unlabeled ligand, 1 μM) by means of GraphPad Prism or alternatively by means of OMMM software.

[2] = system: LHRH-stimulated LH secretion from rat pituitary cells; assay: Inhibition of LHRH-induced LH secretion from rat pituitary cells in vitro; type: cell-based
Description: The LH concentration in cell culture supernatants was measured using the rat luteinizing hormone (rLH) enzyme immunoassay (EIA) system ELISA (RPN 2562) from Amersham Pharmacia Biotech. All other chemicals used were from commercial sources in the highest purity available.
Juvenile male Wistar rats (Harlan Winkelmann, Germany) were sacrificed by decapitation, and the pituitaries were removed and taken up in Hanks' buffer (HBSS) with 0.3% BSA and 10 mM HEPES (pH 7.4). Pituitaries from 20 rats were required to carry out one experiment. The cells of the anterior lobe of the pituitary were separated from the remaining tissue by incubation in Hanks' buffer with 10 mM HEPES (pH 7.4), 0.3% BSA, 1 mg/ml hyaluronidase (type VIII), 1 mg/ml soybean trypsin inhibitor, 10 μg/ml DNAsel and 1 mg/ml papain at 37° C. for 30 minutes A sterile Pasteur pipette was used to disperse the cells, and they were subsequently pelleted by centrifugation. The cells were seeded in a density of 2.5×10^5 cells/well of a collagen-coated 48-well plate (Becton Dickinson) in DMEM medium (Invitrogen Life Technologies, Germany) with 10% fetal calf serum (FCS; Invitrogen Life Technologies, Germany), 10 mill nonessential amino acids and 10 mill Pen/Strep (penicillin/streptomycin).
The medium was changed after incubation at 37° C., 5% CO2 and 95% humidity for 48 h. The medium was replaced by LHRH-containing (10 nM) medium or medium with LHRH (10 nM) and test substance in the concentration indicated (table). After a further incubation for 3 hours, the cell supernatant was harvested and frozen at −20° C. The LH content was determined by means of ELISA in triplicate determination in accordance with the manufacturer's (Amersham Pharmacia Biotech) instructions.
In the following table, “% Inhibition” describes the quotient of LHRH-stimulated LH secretion with (“LH (ng/ml)” and without the addition of the test substance. The values originate from different, independent experiments.

[3] = Saturation solubility in water; type: physicochemical; details: maximum of 1% DMSO added, HPLC UV; for solubility: water, thermodynamic from solid
Description: The saturation solubility in water was determined in accordance with the following description: to initiate dissolving of the substances and to improve the wetting of the samples, a maximum of 1% DMSO was added. The content was checked by using an HPLC UV method.

[4] = target: T2, LHRH receptor (Rattus norvegicus, UniProt P30969); assay: LHRH receptor-ligand binding assay (membrane preparations from rat pituitary cells); details: competition with 0.05 nM [125I][D-Trp6]-LHRH, 90 min, 4° C., rat pituitary membranes
T2 construct: rat pituitary cells which naturally strongly express the LHRH receptor; from tissue; host or cells: rat pituitary cells (membrane preparation)
T2 sequence (P30969 1-327): T1 sequence (P30969 1-327)
Description: Heterologous competition experiments were carried out using membrane preparations from rat pituitary cells which naturally strongly express the LHRH receptor. The ligand used in this case was [^125I][D-Trp^6]-LHRH in a concentration of 0.05 nM. Unlabeled [D-Trp^6]-LHRH was used in a concentration of 1 μM, or the test substance was used in the desired concentration, for competition. After an incubation time of 90 minutes at 4° C., the bound ligand was measured by scintillation (Halmos et al., Proc. Natl. Acad. Sci. USA, 1996, 93, 2398).
The result obtained was the percentage proportion of bound ligand in the presence of the competitor related to the specifically bound proportion of the control (see result for selected compounds in Table 3). EC50 values were calculated by nonlinear regression analysis of the competition plots.

[5] = Metabolic stability in rat liver microsomes; type: in vitro ADME; details: 1 μM, 37° C., NADPH
Description: (§1) The metabolic stability in relation to liver microsomes (species human, rat) was determined in accordance with the following description: the substances were incubated at a test concentration of 1 […] An HPLC MS/MS method was subsequently used to quantify the unmetabolized amount of starting compound relative to 100%.

[6] = Metabolic stability in human liver microsomes; type: in vitro ADME; details: 1 μM, 37° C., NADPH
Description: as §1

[7] = test substance 3.3 × 10^−8 M, LHRH 10 nM, 3 hours

CCC(C)[C@H](NC(=O)[C@@]1(NC(=O)[C@@H](NC(=O)Cc2ccccc2F)C(C)CC)CCc2[nH]c3c(Cl)cc(Cl)cc3c2C1)C(N)=O (stereo partly drawn) [Compound 4, (R)-6,8-dichloro-3-{(S)-2-[2-(2-fluorophenyl)acetylamino]-3-methylpentanoylamino}-2,3,4,9-tetrahydro-1H-carbazole-3-carboxylic acid ((S)-1-carbamoyl-2-methylbutyl)amide]
EC50 [1]: 4.8 nM
inhibition at 0.033 µM ([2]; Rattus norvegicus, 3 h): 67%
LH (ng/ml) ± SD [2, 7]: 79.3 ± 5.7 ng/mL

CC[C@H](C)[C@H](NC(=O)[C@@]1(NC(=O)[C@H](Cc2ccc(OP(=O)(O)O)cc2)NC(=O)OCc2ccccc2)CCc2[nH]c3c(Cl)cc(Cl)cc3c2C1)C(N)=O [Compound 9]
solubility [3]: 151 µg/mL (≈ 191 µM)

CCC(C)[C@H](NC(=O)[C@@]1(NC(=O)[C@H](CCc2ccc(O)cc2)NC(=O)OCc2ccccc2)CCc2[nH]c3c(Cl)cc(Cl)cc3c2C1)C(N)=S (stereo partly drawn) [Compound 10, benzyl[(S)-1-[(R)-6,8-dichloro-3-((S)-2-methyl-1-thiocarbamoylbutylcarbamoyl)-2,3,4,9-tetrahydro-1H-carbazol-3-ylcarbamoyl]-3-(4-hydroxyphenyl)propyl]carbamate]
EC50 [1]: 7.5 nM
inhibition at 0.033 µM ([2]; Rattus norvegicus, test substance 3.3 × 10^−8 M, LHRH 10 nM, 3 hours, read-out: % Inhibition): 39%
inhibition at 0.0033 µM ([2]; Rattus norvegicus, test substance 3.3 × 10^−9 M, LHRH 10 nM, 3 hours): 0%
LH (ng/ml) ± SD [2, 7]: 118.7 ± 11.6 ng/mL
LH (ng/ml) ± SD ([2]; test substance 3.3 × 10^−9 M, LHRH 10 nM, 3 hours): 198.8 ± 4.2 ng/mL

CCC(C)[C@H](NC(=O)[C@@]1(NC(=O)[C@@H](NC(=O)OCc2ccc(F)cc2)C(C)CC)CCc2[nH]c3c(Cl)cc(Cl)cc3c2C1)C(N)=O (stereo partly drawn) [Compound 48, 4-fluorobenzyl {(S)-1-[(R)-3-((S)-1-carbamoyl-2-methylbutylcarbamoyl)-6,8-dichloro-2,3,4,9-tetrahydro-1H-carbazol-3-ylcarbamoyl]-2-methylbutyl}carbamate]
EC50 [4]: 8 nM

CCC(C)[C@H](NC(=O)Cc1ccc(F)cc1F)C(=O)N[C@]1(C(=O)N[C@H](C(N)=S)C(C)CC)CCc2[nH]c3c(Cl)cc(F)cc3c2C1 (stereo partly drawn) [Compound 66, (R)-8-chloro-3-{(S)-2-[2-(2,4-difluorophenyl)acetylamino]-3-methylpentanoylamino}-6-fluoro-2,3,4,9-tetrahydro-1H-carbazole-3-carboxylic acid ((S)-2-methyl-1-thiocarbamoylbutyl)amide]
EC50 [4]: 0.72 nM

CCC(C)[C@H](NCCc1ccc(F)cc1)C(=O)N[C@]1(C(=O)N[C@H](C(N)=S)C(C)CC)CCc2[nH]c3c(Cl)cc(F)cc3c2C1 (stereo partly drawn) [Compound 67, (R)-8-chloro-6-fluoro-3-{(S)-2-[2-(4-fluorophenyl)ethylamino]-3-methylpentanoylamino}-2,3,4,9-tetrahydro-1H-carbazole-3-carboxylic acid ((S)-2-methyl-1-thiocarbamoylbutyl)amide]
EC50 [4]: 6.9 nM

CCC(C)[C@H](NC(=O)[C@@]1(NC(=O)[C@@H](NC(=O)Cc2ccccc2F)C(C)CC)CCc2[nH]c3c(C(F)(F)F)cccc3c2C1)C(N)=O (stereo partly drawn) [Compound 75, (R)-3-{(S)-2-[2-(2-fluorophenyl)acetylamino]-3-methylpentanoylamino}-8-trifluoromethyl-2,3,4,9-tetrahydro-1H-carbazole-3-carboxylic acid ((S)-1-carbamoyl-2-methylbutyl)amide]
EC50 [4]: 0.59 nM

CCC(C)[C@H](NC(=O)[C@@]1(NC(=O)[C@@H](NC(=O)OCc2ccccc2)C(C)CC)CCc2[nH]c3c(OC)cccc3c2C1)C(N)=O (stereo partly drawn) [Example 294 from WO 03/051837 A2, Benzyl {(S)-1-[(R)-3-((S)-1-carbamoyl-2-methylbutylcarbamoyl)-8-methoxy-2,3,4,9-tetrahydro-1H-carbazol-3-ylcarbamoyl]-2-methylbutyl]carbamate, reference compound]
recovery at 1 μM [5]: 5%
recovery at 1 μM [6]: 0%

CCC(C)C(NC(=O)OCc1ccccc1)C(=O)NC1(C(=O)NC(C(N)=O)C2CCCCC2)CCc2[nH]c3c(Cl)cc(Cl)cc3c2C1 (centres unmarked) [Example 300 from WO 03/051837 A2, reference compound]
Saturation solubility in water [3]: 0.38 µg/mL

CCC(C)C(NC(=O)C1(NC(=O)C(CCc2ccc(O)cc2)NC(=O)OCc2ccccc2)CCc2[nH]c3c(Cl)cc(Cl)cc3c2C1)C(N)=O (centres unmarked) [Example 303 from WO 03/051837 A2, Benzyl [1-[3-(1-carbamoyl-2-methylbutylcarbamoyl)-6,8-dichloro-2,3,4,9-tetrahydro-1H-carbazol-3-ylcarbamoyl]-3-(4-hydroxyphenyl)propyl]carbamate, reference compound]
solubility [3]: 0.35 µg/mL (≈ 0.484 µM)

benzyl[(S)-1-[(R)-3-((S)-carbamoyl-2-methylbutylcarbamoyl)-6,8-dichloro-2,3,4,9-tetrahydro-1H-carbazol-3-ylcarbamoyl]-3-(4-phosphonooxyphenyl)propyl]-carbamate [Compound 11]
EC50 [1]: 17.2 nM
Saturation solubility in water [3]: 39.9 µg/mL
Metabolic stability (human) [1 h, % recovery] [6]: 77%
